Patent US10175256B2, “Compositions and methods utilizing lysophosphatidylcholine scaffolds” (National University Of Singapore, priority 2013, dated 2019)
Values joined by “and” are separate entries in the source; they are usually repeats but may differ in a detail not shown here. Equal entries are not always repeated.

Target: T1, mouse Mfsd2a (Mus musculus, UniProt Q9DA75)
T1 construct: expressed in transfected cells; host or cells: HEK293
T1 sequence (Q9DA75 1-534): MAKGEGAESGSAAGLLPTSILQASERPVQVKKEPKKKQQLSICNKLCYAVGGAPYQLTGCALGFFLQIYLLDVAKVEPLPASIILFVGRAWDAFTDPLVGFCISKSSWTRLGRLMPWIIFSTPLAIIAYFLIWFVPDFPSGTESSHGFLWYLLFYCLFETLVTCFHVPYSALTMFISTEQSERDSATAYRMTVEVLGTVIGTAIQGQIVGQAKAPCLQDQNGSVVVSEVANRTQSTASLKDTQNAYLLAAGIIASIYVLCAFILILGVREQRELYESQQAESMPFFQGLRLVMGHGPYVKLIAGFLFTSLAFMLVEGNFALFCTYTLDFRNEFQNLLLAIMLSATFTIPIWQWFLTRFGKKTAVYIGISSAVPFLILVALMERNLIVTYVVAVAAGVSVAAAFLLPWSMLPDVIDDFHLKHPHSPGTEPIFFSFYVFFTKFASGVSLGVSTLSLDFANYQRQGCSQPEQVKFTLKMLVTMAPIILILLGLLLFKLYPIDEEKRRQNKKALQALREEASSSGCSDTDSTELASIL
Test: Cell-based free fatty acid transport/uptake in Mfsd2a expressing HEK293 cells (mass spectrometry, TLC; Table 1)
Conditions: Mfsd2a HEK293 cells, 100 uM fatty acid/BSA overnight
Procedure, shortened: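 HEK293 cells expressing mouse Mfsd2a, or mock controls, were incubated overnight with 100 μM BSA-complexed fatty acids. Lipids were extracted in hexane:isopropanol (3:2) and phospholipid species quantified by HPLC-MS/MS against spiked internal standards. For TLC, cells received 100 μM [^14C]-oleate overnight, and phospholipids and neutral lipids were resolved.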

% DHA in PC + lysoPC: 0.03823% and 0.0379% and 0.03421% | % DHA in PE + lysoPE: 10.42% and 11.02% and 9.771% | % DHA in PI and lysoPI: 0.01451% and 0.01192% and 0.01113% | % DHA in PS: 0.1262% and 0.1099% and 0.1138%
SMILES: CCCCCCCCCCCCCCCC(=O)O [Palmitic acid]
LPI16:0 in total phospholipid: 0.004365 mol percent and 0.003505 mol percent and 0.0022 mol percent | LPI18:0 in total phospholipid: 0.02606 mol percent and 0.0265 mol percent and 0.02588 mol percent | LPI20:4 in total phospholipid: 0.001669 mol percent and 0.001542 mol percent and 0.001553 mol percent | LPI22:6 in total phospholipid: 0.007831 mol percent and 0.008132 mol percent and 0.006212 mol percent | Lyso PE16:0p in total phospholipid: 2.777 mol percent and 2.934 mol percent and 3.347 mol percent | Lyso PE18:0p in total phospholipid: 0.434 mol percent and 0.5456 mol percent and 0.7875 mol percent | Lyso PE20:0p in total phospholipid: 0.2604 mol percent and 0.1622 mol percent and 0.3221 mol percent | LysoPC16:0e in total phospholipid: 0.004306 mol percent and 0.004045 mol percent and 0.00338 mol percent | LysoPC16:0 in total phospholipid: 0.02231 mol percent and 0.02238 mol percent and 0.01839 mol percent | LysoPC16:1 in total phospholipid: 0.006002 mol percent and 0.005731 mol percent and 0.005746 mol percent | LysoPC18:0e in total phospholipid: 0.002349 mol percent and 0.002697 mol percent and 0.00142 mol percent | LysoPC18:0 in total phospholipid: 0.005806 mol percent and 0.006675 mol percent and 0.006016 mol percent | LysoPC18:1 in total phospholipid: 0.01311 mol percent and 0.01254 mol percent and 0.01251 mol percent | LysoPC18:2 in total phospholipid: 0.001631 mol percent and 0.001146 mol percent and 0.001487 mol percent | LysoPC20:4 in total phospholipid: 0.000587 mol percent and 0.000539 mol percent and 0.000608 mol percent | LysoPC22:6 in total phospholipid: 0.000652 mol percent and 0.000809 mol percent and 0.000879 mol percent | LysoPE16:1 in total phospholipid: 0.1736 mol percent and 0.1327 mol percent and 0.1253 mol percent | LysoPE18:0 in total phospholipid: 0.1042 mol percent and 0.08847 mol percent and 0.1611 mol percent | LysoPE18:1 in total phospholipid: 0.1215 mol percent and 0.07373 mol percent and 0.07159 mol percent | PC32:0e in total phospholipid: 1.809 mol percent and 1.851 mol percent and 1.702 mol percent | PC32:0 in total phospholipid: 2.456 mol percent and 2.444 mol percent and 2.298 mol percent | PC32:1e in total phospholipid: 2.403 mol percent and 2.512 mol percent and 2.3 mol percent | PC32:1 in total phospholipid: 9.104 mol percent and 9.244 mol percent and 8.731 mol percent | PC32:2 in total phospholipid: 1.488 mol percent and 1.519 mol percent and 1.412 mol percent | PC34:1e in total phospholipid: 4.813 mol percent and 4.891 mol percent and 4.611 mol percent | PC34:1 in total phospholipid: 18.56 mol percent and 18.94 mol percent and 17.94 mol percent | PC34:2e in total phospholipid: 1.486 mol percent and 1.537 mol percent and 1.423 mol percent | PC34:2 in total phospholipid: 6.06 mol percent and 6.22 mol percent and 5.829 mol percent | PC34:3e in total phospholipid: 0.2283 mol percent and 0.2319 mol percent and 0.2175 mol percent | PC34:3 in total phospholipid: 0.615 mol percent and 0.6295 mol percent and 0.5976 mol percent | PC36:1e in total phospholipid: 1.432 mol percent and 1.425 mol percent and 1.342 mol percent | PC36:1 in total phospholipid: 2.54 mol percent and 2.547 mol percent and 2.409 mol percent | PC36:2e in total phospholipid: 1.609 mol percent and 1.633 mol percent and 1.504 mol percent | PC36:2 in total phospholipid: 5.692 mol percent and 5.815 mol percent and 5.439 mol percent | PC36:3e in total phospholipid: 0.8012 mol percent and 0.8224 mol percent and 0.7603 mol percent | PC36:3 in total phospholipid: 1.149 mol percent and 1.165 mol percent and 1.071 mol percent | PC36:4e in total phospholipid: 0.4287 mol percent and 0.4448 mol percent and 0.4173 mol percent | PC36:4 in total phospholipid: 0.3268 mol percent and 0.3193 mol percent and 0.308 mol percent | PC36:5e in total phospholipid: 0.3253 mol percent and 0.3343 mol percent and 0.309 mol percent | PC36:5 in total phospholipid: 0.05232 mol percent and 0.05663 mol percent and 0.05164 mol percent | PC36:6 in total phospholipid: 0.05108 mol percent and 0.04821 mol percent and 0.04326 mol percent | PC38:1e in total phospholipid: 0.3517 mol percent and 0.3555 mol percent and 0.3378 mol percent | PC38:3e in total phospholipid: 0.4164 mol percent and 0.4068 mol percent and 0.3798 mol percent | PC38:3 in total phospholipid: 0.5146 mol percent and 0.5317 mol percent and 0.5066 mol percent | PC38:4e in total phospholipid: 0.4168 mol percent and 0.4143 mol percent and 0.3843 mol percent | PC38:4 in total phospholipid: 0.4407 mol percent and 0.4455 mol percent and 0.4228 mol percent | PC38:5e in total phospholipid: 0.3513 mol percent and 0.3625 mol percent and 0.3264 mol percent | PC38:5 in total phospholipid: 0.2268 mol percent and 0.2451 mol percent and 0.2273 mol percent | PC38:6 in total phospholipid: 0.1683 mol percent and 0.1727 mol percent and 0.1591 mol percent | PC38:7 in total phospholipid: 0.1176 mol percent and 0.1195 mol percent and 0.1136 mol percent | PC40:1e in total phospholipid: 0.1793 mol percent and 0.1879 mol percent and 0.168 mol percent | PC40:2e in total phospholipid: 0.1944 mol percent and 0.1992 mol percent and 0.1788 mol percent | PC40:3e in total phospholipid: 0.1397 mol percent and 0.1434 mol percent and 0.1332 mol percent | PC40:4e in total phospholipid: 0.1237 mol percent and 0.1272 mol percent and 0.1205 mol percent | PC40:5e in total phospholipid: 0.1172 mol percent and 0.1169 mol percent and 0.1115 mol percent | PC40:5 in total phospholipid: 0.08233 mol percent and 0.08765 mol percent and 0.07997 mol percent | PC40:6 in total phospholipid: 0.1131 mol percent and 0.1203 mol percent and 0.105 mol percent | PC40:7 in total phospholipid: 0.1694 mol percent and 0.1653 mol percent and 0.1619 mol percent | PE32:1 in total phospholipid: 0.4397 mol percent and 0.3146 mol percent and 0.3699 mol percent | PE32:2 in total phospholipid: 0.09258 mol percent and 0.118 mol percent and 0.1193 mol percent | PE34:1 in total phospholipid: 1.562 mol percent and 1.425 mol percent and 1.336 mol percent | PE34:2 in total phospholipid: 1.088 mol percent and 0.9634 mol percent and 1.014 mol percent | PE34p:1 in total phospholipid: 1.042 mol percent and 1.072 mol percent and 1.479 mol percent
